What was measured:
Experiment in all cases: Preemergent control of plant species
cotton = type: in vivo, Gossypium spp.; conditions: 0.25 lb/acre; for plant injury at 280.212 g/ha: Gossypium hirsutum, pre-emergence, 336 h, read-out: percent preemergent control
Description: (§1) The seeds of various species of plants were planted in beds of good agricultural soil in a greenhouse. A number of compositions of the present invention, generally in the nature of an aqueous emulsion, were applied at rates listed in the table so as to deposit a predetermined amount of active ingredients uniformly throughout the surface of the bed. Another seed bed was treated only with water to serve as a control. After treatment the seed beds were maintained for two weeks under greenhouse conditions conducive for good plant growth and watered as necessary. Control refers to the reduction in growth compared to the observed results of the same untreated species.

soybean = type: in vivo, Glycine max.; conditions: 0.25 lb/acre; for plant injury at 280.212 g/ha: Glycine max, pre-emergence, 336 h, read-out: percent preemergent control
Description: as §1

sugar beet = type: in vivo, Beta saccharifera; conditions: 0.25 lb/acre; for plant injury at 280.212 g/ha: Beta vulgaris, pre-emergence, 336 h, read-out: percent preemergent control
Description: as §1

jimsonweed = type: in vivo, Datura stramonium; conditions: 0.25 lb/acre; for pest or weed control at 280.212 g/ha: Datura stramonium, pre-emergence, 336 h, read-out: percent preemergent control
Description: as §1

annual morning glory = type: in vivo, Ipomoea spp.; conditions: 0.25 lb/acre; for pest or weed control at 280.212 g/ha: Ipomoea, pre-emergence, 336 h, read-out: percent preemergent control
Description: as §1

velvetleaf = type: in vivo, Abutilon theophrasti; conditions: 0.25 lb/acre; for pest or weed control at 280.212 g/ha: Abutilon theophrasti, pre-emergence, 336 h, read-out: percent preemergent control
Description: as §1

corn = type: in vivo, Zea mays; conditions: 0.25 lb/acre; for plant injury at 280.212 g/ha: Zea mays, pre-emergence, 336 h, read-out: percent preemergent control
Description: as §1

rice = type: in vivo, Oryza sativa; conditions: 0.25 lb/acre; for plant injury at 280.212 g/ha: Oryza sativa, pre-emergence, 336 h, read-out: percent preemergent control
Description: as §1

sorghum = type: in vivo, Sorghum vulgare; conditions: 0.25 lb/acre; for plant injury at 280.212 g/ha: Sorghum, pre-emergence, 336 h, read-out: percent preemergent control
Description: as §1

wheat = type: in vivo, Triticum aestivum; conditions: 0.25 lb/acre; for plant injury at 280.212 g/ha: Triticum aestivum, pre-emergence, 336 h, read-out: percent preemergent control
Description: as §1

barnyardgrass = type: in vivo, Echinochloa crusgalli; conditions: 0.25 lb/acre; for pest or weed control at 280.212 g/ha: Echinochloa crus-galli, pre-emergence, 336 h, read-out: percent preemergent control
Description: as §1

johnson grass = type: in vivo, Sorghum halepense; conditions: 0.25 lb/acre; for pest or weed control at 280.212 g/ha: Sorghum halepense, pre-emergence, 336 h, read-out: percent preemergent control
Description: as §1

yellow foxtail = type: in vivo, Setaria lutescens; conditions: 0.25 lb/acre; for pest or weed control at 280.212 g/ha: Setaria, pre-emergence, 336 h, read-out: percent preemergent control
Description: as §1

yellow nutsedge = type: in vivo, Cyperus esculentus; conditions: 0.25 lb/acre; for pest or weed control at 280.212 g/ha: Cyperus, pre-emergence, 336 h, read-out: percent preemergent control
Description: as §1

rape = type: in vivo, Brassica napus; conditions: 0.25 lb/acre; for plant injury at 280.212 g/ha: Brassica napus, pre-emergence, 336 h, read-out: percent preemergent control
Description: as §1

| Compound | plant injury at 280.212 g/ha (cotton) [%] | plant injury at 280.212 g/ha (soybean) [%] | plant injury at 280.212 g/ha (sugar beet) [%] | pest or weed control at 280.212 g/ha (jimsonweed) [%] | pest or weed control at 280.212 g/ha (annual morning glory) [%] | pest or weed control at 280.212 g/ha (velvetleaf) [%] | plant injury at 280.212 g/ha (corn) [%] | plant injury at 280.212 g/ha (rice) [%] | plant injury at 280.212 g/ha (sorghum) [%] | plant injury at 280.212 g/ha (wheat) [%] | pest or weed control at 280.212 g/ha (barnyardgrass) [%] | pest or weed control at 280.212 g/ha (johnson grass) [%] | pest or weed control at 280.212 g/ha (yellow foxtail) [%] | pest or weed control at 280.212 g/ha (yellow nutsedge) [%] | plant injury at 280.212 g/ha (rape) [%] | other results |
| --- | --- | --- | --- | --- | --- | --- | --- | --- | --- | --- | --- | --- | --- | --- | --- | --- |
| O=S(=O)(Nc1c(Cl)cccc1Cl)c1nc2ncccn2n1 [Compound 137] | 80 | 0 | 100 | 10 | 70 | 80 | 0 | 50 | 30 | 30 | 20 | 20 | 20 | 100 | – | – |
| O=S(=O)(Nc1c(F)cccc1F)c1nc2ncccn2n1 [Compound 138] | 100 | 50 | 90 | 20 | 20 | 90 | 30 | 50 | 50 | 10 | 0 | 90 | 90 | 80 | 100 | – |
| Cc1ccc(Cl)c(NS(=O)(=O)c2nc3ncccn3n2)c1Cl [Compound 139] | 100 | 50 | 100 | 100 | 90 | 100 | 70 | 90 | 100 | 80 | 80 | 100 | 100 | 100 | 100 | – |
| COc1cccc(C(F)(F)F)c1NS(=O)(=O)c1nc2ncccn2n1 [Compound 141] | 100 | 100 | 100 | 100 | 100 | 100 | 100 | 100 | 100 | 95 | 95 | 100 | 100 | 75 | 100 | – |
| COc1cccc(F)c1NS(=O)(=O)c1nc2nc(C)ccn2n1 [Compound 171] | 70 | 20 | 100 | 20 | 50 | 90 | 40 | 90 | 100 | 50 | 100 | 100 | 100 | 80 | 100 | – |
| COc1ccc(F)c(NS(=O)(=O)c2nc3nc(C)ccn3n2)c1F [Compound 172] | 100 | 90 | 100 | 100 | 90 | 100 | 80 | 100 | 100 | 90 | 100 | 90 | 100 | 100 | – | – |
| Cc1ccn2nc(S(=O)(=O)Nc3c(F)cccc3[N+](=O)[O-])nc2n1 [Compound 173] | – | – | – | – | – | – | – | – | – | – | – | – | – | – | – | percent preemergent control (cotton): 50%; percent preemergent control (rape): 80%; percent preemergent control (soybean): 0%; percent preemergent control (sugar beet): 90%; percent preemergent control (jimsonweed): 0%; percent preemergent control (annual morning glory): 0%; percent preemergent control (velvetleaf): 0%; percent preemergent control (corn): 30%; percent preemergent control (rice): 70%; percent preemergent control (sorghum): 30%; percent preemergent control (wheat): 20%; percent preemergent control (barnyardgrass): 30%; percent preemergent control (johnson grass): 70%; percent preemergent control (yellow foxtail): 50%; percent preemergent control (yellow nutsedge): 0% |
| COC(=O)c1cccc(C)c1NS(=O)(=O)c1nc2nccc(C)n2n1 [Compound 189] | 100 | 80 | 100 | 80 | 50 | 100 | 80 | 90 | 100 | 80 | 80 | 70 | 80 | 100 | 100 | – |
| Cc1ccc(F)c(NS(=O)(=O)c2nc3nccc(C)n3n2)c1F [Compound 190] | 90 | 90 | 100 | 90 | 50 | 50 | 10 | 20 | 95 | 20 | 30 | 30 | 70 | 100 | – | – |
| COc1cccc(C(F)(F)F)c1NS(=O)(=O)c1nc2nccc(C)n2n1 [Compound 191] | 100 | 100 | 100 | 100 | 100 | 100 | 95 | – | 100 | 100 | 100 | 100 | 100 | 100 | 100 | – |
| Cc1cc(C(F)(F)F)n2nc(S(=O)(=O)Nc3c(F)cccc3F)nc2n1 [Compound 228] | 90 | 20 | 100 | 100 | 70 | 90 | 50 | – | 100 | 50 | 90 | 90 | 50 | 50 | 80 | – |
| CSc1nc2nc(S(=O)(=O)Nc3c(Cl)cccc3Cl)nn2cc1C [Compound 235] | 50 | 0 | 50 | 50 | 90 | 20 | 50 | 10 | 50 | 50 | – | 0 | 20 | 0 | – | – |
| Cc1cn2nc(S(=O)(=O)Nc3c(Cl)cccc3Cl)nc2nc1N(C)C [Compound 237] | 50 | 40 | 50 | 10 | 20 | 0 | 20 | 20 | 20 | 100 | 10 | 10 | 30 | 30 | – | – |
